According to patent US20210115000A1, “NILE RED DERIVATIVES FOR IMPROVED RATIOMETRIC IMAGING FOR NERVE SPECIFIC CONTRAST” (Oregon Health & Sciences University, priority 2018, published 2021):
Entries after “also recorded” stand apart in the source; their conditions may differ.

How the values were obtained:
[1] = tested on: CD-1 mouse sciatic nerve and surrounding muscle and adipose tissues; assay: Ex vivo tissue section staining, imaging and fluorescence quantification; conditions: for tissue fluorescence intensity, region of interest analysis / tissue staining specificity on mouse tissue sections: 100 μM, 40 min; for tissue fluorescence intensity, region of interest analysis: n=4 tissue sections; for tissue staining specificity on mouse tissue sections: sections with nerve, muscle, adipose; for adipose to muscle ratio: ex vivo tissue sections, vs control autofluorescence
Experimental: Cryosections of CD-1 mouse sciatic nerve and surrounding muscle and adipose tissues from unrelated experiments were cut from optimal cutting temperature (OCT, Fisher Scientific, Hampton, N.H.) embedded frozen tissues. Cryosectioned tissues were captured on superfrost plus slides (Fisher Scientific) at 10 μm thickness. The tissue sections were washed with 1×PBS for 2 minutes to remove OCT, and then fixed with 2% PFA for 15 mins. The tissue sections were then washed with 0.1% Tween 20 in 1×PBS (3×5 mins), followed by incubation with 100 μM of Nile Red and each Nile Red derivative formulated using 10% DMSO, 5% Kolliphore (Sigma Aldrich, St. Louis, Mo.), 63.75% FBS, and 21.25% 1× PBS as previously described.^26 Tissue sections were incubated with the formulated fluorophores for 40 minutes at room temperature, followed by washing with blank formulation not containing fluorophore (2×5 mins). Each tissue section was then washed with 1×PBS (2×5 mins), fixed for 15 minutes using 2% PFA, followed by a final wash with 1×PBS for 5 mins before mounting in glycerol (Fisher Scientific). Images were collected at an exposure time of 650 ms for all Nile Red and Nile Red derivative stained sections. Four tissue sections were stained for Nile Red and each Nile Red derivative, facilitating adipose to muscle and adipose to nerve contrast ratio quantification where tissue intensities were quantified using region of interest analysis with custom written MatLab code (The MathWorks, Natick, Mass.). For each tissue type, a representative area was selected, where a threshold based mask was set to determine tissue from background. The mean tissue intensity was calculated in adipose, nerve and muscle tissues as the intensity per second and used to calculate the adipose to nerve and adipose to muscle contrast ratios. All ex vivo and cellular fluorescence and white light images were collected using a Zeiss AxioObserver inverted fluorescence microscope (Carl Zeiss, Oberkochen, Germany). All cell images were collected at 40× magnification and all tissue section images were collected at 10× magnification. Fluorescence excitation was completed using a Photofluor II broad band light source (89 North, Burlington, Vt.) filtered with a 545±12.5 nm bandpass excitation filter. Fluorescence images were collected using a 605±35 nm bandpass emission filter and a AxioCam 506 monochromo camera (Zeiss). All Filters were Purchased from Chroma Technologies (Bellows Falls, Vt.).

[2] = tested on: U2OS human osteosarcoma cell line; assay: Nile Red derivative cell staining and imaging, fixed and live cells; assay type: cell-based; conditions: 1 μM; for fluorescence intensity in fixed cells: U2OS fixed with 4% PFA, imaged without washing; for fluorescence intensity in fixed cells / fluorescence intensity in live cells without washing / structures observed in live cells without washing: 5 min; for fluorescence intensity in live cells without washing / structures observed in live cells without washing: U2OS live, imaged in staining solution
Experimental: The U2OS human osteosarcoma cell line was cultured in Dulbecco's Modified Eagle Medium (DMEM, Thermo Fisher Scientific, Waltham, Mass.) with 10% fetal bovine serum (FBS, VWR, Radnor, Pa.) and 1% Penicillin/Steptomycin 100× (Thermo Fisher Scientific) at 37° C. in 5% CO2. For live cell imaging studies, Fluorobrite DMEM media (Thermo Fisher Scientific) was used in place of DMEM. For imaging studies, cells were grown in 96-well glass bottom plates (Cellvis, Mountain View, Calif.) for 48 hours, with a final confluence of <80%. Nile Red and its derivatives were prepared at 1-10 mM stock concentration in DMSO and diluted into media or buffer for cell staining and imaging studies.
Cell staining studies were completed on fixed and live U2OS cells using Nile Red and each synthesized Nile Red derivative described as follows. For fixed cell staining, cells were washed once with 1× phosphate buffered saline (PBS), then fixed with 4% paraformaldehyde (PFA) for 20 minutes at room temperature. The PFA was removed and each well was washed three times for 5 mins per wash (3×5 mins) with 1×PBS. The Nile Red fluorophores were diluted into 1×PBS to a final concentration of 1 μM, incubated for 5 minutes with the cells, and images were collected without washing. Live cell staining was completed using two methods. First, cells were washed once with Fluorobrite DMEM. The Nile Red fluorophore solution was prepared in Fluorobrite DMEM by diluting to a final concentration of 1 μM for staining, where cells were stained for 5 minutes. The fluorophore containing media was removed and the cells were fixed for 20 minutes using 4% PFA. Cells were then washed 3×5 mins with Fluorobrite DMEM prior to imaging. Second, cells were washed with Fluorobrite DMEM without FBS once for 5 minutes. Nile Red fluorophore solutions were prepared in Fluorobrite without FBS at 1 μM final concentration for cell staining. The cells were stained with the prepared solution for 5 minutes and imaged in the staining solution. All images were collected at their ideal exposure times to permit visualization of stained intracellular structures.
All ex vivo and cellular fluorescence and white light images were collected using a Zeiss AxioObserver inverted fluorescence microscope (Carl Zeiss, Oberkochen, Germany). All cell images were collected at 40× magnification and all tissue section images were collected at 10× magnification. Fluorescence excitation was completed using a Photofluor II broad band light source (89 North, Burlington, Vt.) filtered with a 545±12.5 nm bandpass excitation filter. Fluorescence images were collected using a 605±35 nm bandpass emission filter and a AxioCam 506 monochromo camera (Zeiss). All Filters were Purchased from Chroma Technologies (Bellows Falls, Vt.).

[3] = Spectroscopic analysis: absorbance, emission and quantum yield of Nile Red derivatives; assay type: physicochemical
Experimental: Tandem liquid chromatography mass spectroscopy (LCMS) analysis (Agilent 1260 LC system with a 6224 time of flight (TOF) MS, Agilent, Santa Clara, Calif.) was performed using a 2.7 micron C18 column (4.6×50 mm, Agilent). High performance liquid chromatography (HPLC) purification (Agilent 1260 system with a preparative pump) was performed using a 5 micron C18 column (21.2×150 mm, Agilent). For both HPLC and LCMS, the mobile phase consisted of HPLC grade acetonitrile and water, treated with 0.1% formic acid. Spectroscopic analysis was performed on a Spectramax M5 spectrometer (Molecular Devices, Sunnyvale, Calif.) using a quartz cuvette with a 1 cm pathlength. Quantum yield was calculated according to equation (1).
Where Ø is the quantum yield, F is the integrated fluorescence intensity, f is the absorbance at the excitation wavelength and n is the refractive index of the solvent. S refers to the quantum yield standard (Rhodamine B)^25 and X refers to the unknown sample.

Question: Which “tissue fluorescence intensity, region of interest analysis” value [1] does the source give for `CCN(CC)c1ccc2nc3c4ccc(-c5ccc(C#N)cc5)cc4c(=O)cc-3oc2c1` [NR5, 4-(9-(diethylamino)-5-oxo-5H-benzo[a]phenoxazin-3-yl)benzonitrile] here?
Answer: Its value is “strong nerve and adipose fluorescence staining; also recorded: substantially higher adipose, nerve and muscle tissue fluorescence”.

Question: And the “tissue staining specificity on mouse tissue sections” value [1]?
Answer: The value was “adipose specificity; also recorded: brightest overall tissue staining compared to the other Nile Red derivatives”.

Question: What about the “adipose to muscle ratio” value [1] of the same compound?
Answer: Its value is “increased contrast over control autofluorescence adipose to muscle ratio; also recorded: highest contrast ratios”.

Question: And the “fluorescence intensity in fixed cells” value [2]?
Answer: The value was “bright”.

Question: And the “fluorescence intensity in live cells without washing” value [2]?
Answer: Its value is “brightest of the synthesized derivatives”.

Question: And the “structures observed in live cells without washing” value [2]?
Answer: The value was “Prominent lipid droplet like structures”.

Question: And the “fluorescence intensity in both the fixed and live in vitro imaging studies” value ([2]; U2OS)?
Answer: Its value is “brightest fluorescence intensity of the Nile Red derivatives”.

Question: And the “Max Abs” value ([3]; in DMSO)?
Answer: Its value is 560 nm.

Question: What about the “Max Em” value ([3]; in DMSO) of the same compound?
Answer: Its value is 640 nm.

Question: What about the “Stokes Shift” value ([3]; in DMSO) of the same compound?
Answer: The value was 80 nm.

Question: What about the “QY (quantum yield)” value ([3]; in DMSO, standard Rhodamine B) of the same compound?
Answer: Its value is 0.54.

Question: Which results are given for `CCN(CC)c1ccc2nc3c4ccccc4c(=O)cc-3oc2c1` [Nile Red]?
Answer: tissue fluorescence intensity, region of interest analysis [1]: strong nerve and adipose fluorescence staining; also recorded: highest overall tissue fluorescence; tissue staining specificity on mouse tissue sections [1]: adipose specificity; adipose to muscle ratio [1]: increased contrast over control autofluorescence adipose to muscle ratio; also recorded: highest contrast ratios; fluorescence intensity in fixed cells [2]: bright; fluorescence intensity in live cells without washing [2]: brightest overall; structures observed in live cells without washing [2]: Prominent lipid droplet like structures; Max Abs ([3]; in DMSO): 550 nm; Max Em ([3]; in DMSO): 630 nm; absorbance maximum ([3]; in toluene): 520 nm; emission maximum ([3]; in toluene): 570 nm
